Test results: the CheMixHub viscosity set
“And” between values parts separate entries of the source, which are not always exact repeats. Identical values can stand only once.

CCCC(C)=O
Conditions	viscosity
293.15 K, 101 kPa	0.506 mPa·s
298.15 K, 101 kPa	0.463 mPa·s and 0.4591 mPa·s and 0.4673 mPa·s
303.15 K, 100 kPa	0.435 mPa·s
303.15 K, 101 kPa	0.437 mPa·s and 0.435 mPa·s
303.15 K, 101.32 kPa	0.466 mPa·s
303.15 K, 101.33 kPa	0.456 mPa·s
308.15 K, 100 kPa	0.422 mPa·s
308.15 K, 101 kPa	0.413 mPa·s and 0.422 mPa·s and 0.4197 mPa·s
313.15 K, 100 kPa	0.409 mPa·s
313.15 K, 101 kPa	0.405 mPa·s
318.15 K, 101 kPa	0.3782 mPa·s
323.15 K, 101 kPa	0.3584 mPa·s

CC[N+](C)(CC)CCOC.F[B-](F)(F)F
101 kPa
Conditions	viscosity [mPa·s]
293.15 K	228.1
298.15 K	178.6
303.15 K	140.4
308.15 K	111.4
313.15 K	89.27
318.15 K	70.53
323.15 K	57.55

ClC(Cl)(Cl)Cl
Conditions	viscosity
293.15 K, 101 kPa	0.95 mPa·s and 0.9826 mPa·s
298 K, 101 kPa	0.9128 mPa·s
298 K, 101.3 kPa	0.892 mPa·s
298 K, 101.33 kPa	0.899 mPa·s
298.15 K, 100 kPa	0.9062 mPa·s and 0.897 mPa·s
298.15 K, 101.32 kPa	0.902 mPa·s and 0.902 mPa·s
298.16 K, 101 kPa	0.907 mPa·s
301.85 K, 101 kPa	0.9088 mPa·s
303 K, 101.33 kPa	0.8371 mPa·s and 0.838 mPa·s
303.15 K, 100 kPa	0.845 mPa·s and 0.838 mPa·s
303.15 K, 101.3 kPa	0.8427 mPa·s and 0.8427 mPa·s
303.15 K, 101.33 kPa	0.845 mPa·s and 0.845 mPa·s and 0.768 mPa·s
308 K, 101 kPa	0.7888 mPa·s
308.15 K, 100 kPa	0.7897 mPa·s and 0.784 mPa·s
308.15 K, 101.33 kPa	0.717 mPa·s
312.15 K, 101 kPa	0.7815 mPa·s
313 K, 101.33 kPa	0.7436 mPa·s and 0.735 mPa·s
313.15 K, 100 kPa	0.7394 mPa·s and 0.734 mPa·s
313.15 K, 101.33 kPa	0.739 mPa·s and 0.7392 mPa·s
318 K, 101 kPa	0.6788 mPa·s
318 K, 101.3 kPa	0.7444 mPa·s and 0.7449 mPa·s
318 K, 101.33 kPa	0.7449 mPa·s
318.15 K, 100 kPa	0.689 mPa·s
323 K, 101.33 kPa	0.6566 mPa·s and 0.653 mPa·s
323.15 K, 101 kPa	0.712 mPa·s
323.15 K, 101.33 kPa	0.6543 mPa·s

CCCC[n+]1ccccc1.N#C[N-]C#N
101 kPa
Conditions	viscosity [mPa·s]
293.15 K	41.05
298.15 K	33.27
303.15 K	27.62
308.15 K	22.9
313.15 K	19.3
318.15 K	16.73
323.15 K	14.44

CCCOC(C)=O
viscosity
Conditions	293.15 K	298.15 K	303.15 K	308.15 K	313.15 K	318.15 K
101 kPa	0.591 mPa·s	0.56 mPa·s and 0.553 mPa·s and 0.562 mPa·s	0.525 mPa·s	0.487 mPa·s and 0.488 mPa·s	0.462 mPa·s and 0.451 mPa·s	0.439 mPa·s
101.33 kPa	–	0.563 mPa·s	0.524 mPa·s and 0.512 mPa·s	0.489 mPa·s and 0.483 mPa·s	–	–

CC1CCCCC1O (stereo unspecified)
viscosity [mPa·s]
Conditions	293.15 K	298.15 K	303.15 K	308.15 K	313.15 K
100 kPa	38.6	26.99	18.91	13.95	10.53
101 kPa	21.7	–	–	–	–

CC[n+]1ccn(C)c1.N#C[N-]C#N
viscosity
Conditions	298.15 K	303.15 K	308.15 K	313.15 K	318.15 K	323.15 K
100 kPa	14.78 mPa·s and 13.09 mPa·s	12.88 mPa·s and 11.39 mPa·s	11.3 mPa·s and 10 mPa·s	9.759 mPa·s and 8.86 mPa·s	8.929 mPa·s and 7.92 mPa·s	8.01 mPa·s and 7.13 mPa·s
101 kPa	14.9 mPa·s and 17.4 mPa·s	–	–	10.07 mPa·s	–	–

CC(C)[O-].CC(C)[O-].CC(C)[O-].CC(C)[O-].[Ti+4]
101.3 kPa
Conditions	viscosity [mPa·s]
293.15 K	3.144
303.15 K	1.845
313.15 K	1.279
323.15 K	1.003

CCC(C)(O)CC
Conditions	viscosity
298.15 K, 101.33 kPa	3.918 mPa·s and 3.918 mPa·s

CCCCCCCCCCCCCC[P+](CCCCCC)(CCCCCC)CCCCCC.O=S(=O)([N-]S(=O)(=O)C(F)(F)F)C(F)(F)F
Conditions	viscosity [mPa·s]
313.15 K, 101 kPa	150
